Laboratory results as given in patent publication US8927580B2, “Thiosemicarbazone compounds and use in the treatment of cancer” (Oncochel Therapeutics LLC, priority 2010, dated 2015).

Experiments:
[1] = system: SK-N-MC neuroepithelioma cell line; assay: MTT anti-proliferative assay in SK-N-MC cells; type: cell-based, human; conditions: Homo sapiens, 72 h at 37° C., mean±SD (3 experiments)
Procedure: The cells were maintained in minimum essential media (MEM; Invitrogen, CA, USA) which contained 10% fetal calf serum (FCS; JRH Biosciences, Kansas, USA), 1% non-essential amino acids (Gibco, Victoria, Australia), 1% penicillin/streptomycin/glutamine (Gibco, VIC, Australia) and fungizone ([…]; Squibb Pharmaceuticals, Montreal, Canada).
The ability of the compounds to inhibit cellular proliferation was assessed initially in SK-N-MC cells by the MTT assay.
Table 1. […] Cells were seed and allowed to attach to wells for 24 h and then incubated for 72 h at 37° C. with control medium or the chelators.

[2] = system: SK-N-MC neuroepithelioma cells; assay: Iron efflux assay (59Fe release from pre-labeled cells); type: cell-based, human; conditions: 25 μM chelator, 3 h at 37° C.
Procedure: The culture dishes were then placed on ice, the supernatant containing excess ^59Fe-Tf was aspirated and the cells washed 4 times with ice-cold PBS. […] After 3 h the culture dishes were again placed on ice, the media was collected in counting tubes and this provided a measurement of released ^59Fe. Ice-cold PBS (1 mL) was added to plates containing cells and cells were scraped from the plastic surface using a Teflon spatula and also collected in counting tubes. These tubes represent the intracellular ^59Fe content. Results are expressed as total ^59Fe released as a percentage of total ^59Fe present. Radioactivity was measured using a Wallac Wizard 3″ Gamma Counter (PerkinElmer, MA, USA).

[3] = system: SK-N-MC neuroepithelioma cells; assay: Iron uptake assay (59Fe uptake from 59Fe-transferrin); type: cell-based, human; conditions: 25 μM chelator, 3 h at 37° C., 59Fe-Tf
Procedure: Cells were cultured in the same way as for the iron efflux experiments. […] At the end of the incubation the culture dishes were placed on ice, the media aspirated, and the cells washed 4 times with ice cold PBS. Protease (1 mL; 1 mg/mL; Sigma-Aldrich, NSW, Australia) solution was added to each plate and allowed to incubate on ice for 30 min. This facilitated the removal of membrane bound ^59Fe-Tf. Cells were then scraped from the plastic surface using a Teflon spatula and collected in Eppendorf tubes. These were centrifuged at 10000 rpm and 4° C. for 3 min. The supernatant was then transferred into counting tubes and the cell pellet resuspended in PBS before also being transferred into another set of counting tubes. Radioactivity was measured using a Wallac Wizard 3″ Gamma Counter (PerkinElmer, MA, USA). Results are expressed as average ^59Fe content of the cellular fraction as a percentage of the control value.

[4] = system: DMS-53 human lung carcinoma; assay: DMS-53 xenograft in nude mice, i.v. administration: tumour growth; type: in vivo, nude mice (BALBc nu/nu); conditions: after 25 days, 4 or 6 mg/kg
[5] = system: DMS-53 human lung carcinoma; assay: DMS-53 xenograft in nude mice, oral gavage: tumour growth; type: in vivo, nude mice (BALBc nu/nu); conditions: for Tumour weight: 21 days; for net tumour size (% of initial tumour volume): after 21 days
[6] = DMS-53 xenograft oral study: body and organ weights, haematology, biochemistry, histology; type: in vivo, nude mice (BALBc nu/nu); conditions: for Alanine Aminotransferase (ALT) / Albumin / Alkaline Phosphatase (ALP) / Cholesterol / Haematocrit (HCT) / Haemoglobin (HGB) / Platelets / Serum Iron / Total Iron-Binding Capacity (TIBC) / Triglyceride / Unsaturated Iron-Binding Capacity (UIBC) / White Blood Cell (WBC): oral gavage 21 days; for Red Blood Cell (RBC): oral gavage for 21 days, 3 days/week; for Body weight (% initial) / Brain weight / Heart weight / Kidney weight / Liver weight / Lung weight / Spleen weight: oral

CCN(C)C(=S)NN=C(c1ccccn1)c1ccccn1 [Dp4e4mT, di-2-pyridylketone 4-ethyl-4-methyl-3-thiosemicarbazone]
IC50 [1]: 4.1 nM | cellular 59Fe mobilised (59Fe released as percentage of total 59Fe) [2]: 38% | cellular 59Fe uptake (% of the control) [3]: 12% | net tumour size (% of the initial tumour volume) [4]: 120-122% | Tumour weight ([5]; 2.5 mg/kg): 0.63 ± 0.17 g | Tumour weight ([5]; 5 mg/kg): 0.89 ± 0.14 g | Tumour weight ([5]; 7.5 mg/kg): 0.60 ± 0.15 g | net tumour size (% of initial tumour volume) ([5]; 7.5 mg/kg): 404% | net tumour size (% of initial tumour volume) ([5]; 10 mg/kg): 284% | Alanine Aminotransferase (ALT) ([6]; 2.5 mg/kg): 73.1 U/L | Albumin ([6]; 2.5 mg/kg): 31.3 g/L | Alkaline Phosphatase (ALP) ([6]; 2.5 mg/kg): 85.7 U/L | Cholesterol ([6]; 2.5 mg/kg): 2.44 mmol/L | Haematocrit (HCT) ([6]; 2.5 mg/kg): 44% | Haemoglobin (HGB) ([6]; 2.5 mg/kg): 148 g/L | Platelets ([6]; 2.5 mg/kg): 1047 10^9/L | Serum Iron ([6]; 2.5 mg/kg): 25.5 µmol/L | Total Iron-Binding Capacity (TIBC) ([6]; 2.5 mg/kg): 56.7 µmol/L | Triglyceride ([6]; 2.5 mg/kg): 1.00 mmol/L | Unsaturated Iron-Binding Capacity (UIBC) ([6]; 2.5 mg/kg): 57.9 µmol/L | White Blood Cell (WBC) ([6]; 2.5 mg/kg): 2.68 10^9/L | Alanine Aminotransferase (ALT) ([6]; 5 mg/kg): 44.9 U/L | Albumin ([6]; 5 mg/kg): 30.4 g/L | Alkaline Phosphatase (ALP) ([6]; 5 mg/kg): 61.7 U/L | Cholesterol ([6]; 5 mg/kg): 2.63 mmol/L | Haematocrit (HCT) ([6]; 5 mg/kg): 43% | Haemoglobin (HGB) ([6]; 5 mg/kg): 143 g/L | Platelets ([6]; 5 mg/kg): 973 10^9/L | Serum Iron ([6]; 5 mg/kg): 31.0 µmol/L | Total Iron-Binding Capacity (TIBC) ([6]; 5 mg/kg): 53.1 µmol/L | Triglyceride ([6]; 5 mg/kg): 0.57 mmol/L | Unsaturated Iron-Binding Capacity (UIBC) ([6]; 5 mg/kg): 66.9 µmol/L | White Blood Cell (WBC) ([6]; 5 mg/kg): 1.80 10^9/L | Alanine Aminotransferase (ALT) ([6]; 7.5 mg/kg): 57.2 U/L | Albumin ([6]; 7.5 mg/kg): 31.3 g/L | Alkaline Phosphatase (ALP) ([6]; 7.5 mg/kg): 87.2 U/L | Cholesterol ([6]; 7.5 mg/kg): 2.78 mmol/L | Haematocrit (HCT) ([6]; 7.5 mg/kg): 45% | Haemoglobin (HGB) ([6]; 7.5 mg/kg): 151 g/L | Platelets ([6]; 7.5 mg/kg): 834 10^9/L | Serum Iron ([6]; 7.5 mg/kg): 32.8 µmol/L | Total Iron-Binding Capacity (TIBC) ([6]; 7.5 mg/kg): 56.8 µmol/L | Triglyceride ([6]; 7.5 mg/kg): 0.67 mmol/L | Unsaturated Iron-Binding Capacity (UIBC) ([6]; 7.5 mg/kg): 64.9 µmol/L | White Blood Cell (WBC) ([6]; 7.5 mg/kg): 3.08 10^9/L | Alanine Aminotransferase (ALT) ([6]; 10 mg/kg): 63.4 U/L | Albumin ([6]; 10 mg/kg): 29.3 g/L | Alkaline Phosphatase (ALP) ([6]; 10 mg/kg): 89.5 U/L | Cholesterol ([6]; 10 mg/kg): 2.46 mmol/L | Haematocrit (HCT) ([6]; 10 mg/kg): 44% | Haemoglobin (HGB) ([6]; 10 mg/kg): 142 g/L | Platelets ([6]; 10 mg/kg): 917 10^9/L | Serum Iron ([6]; 10 mg/kg): 21.2 µmol/L | Total Iron-Binding Capacity (TIBC) ([6]; 10 mg/kg): 60.2 µmol/L | Triglyceride ([6]; 10 mg/kg): 0.94 mmol/L | Unsaturated Iron-Binding Capacity (UIBC) ([6]; 10 mg/kg): 50.1 µmol/L | White Blood Cell (WBC) ([6]; 10 mg/kg): 3.27 10^9/L | Red Blood Cell (RBC) ([6]; 2.5 mg/kg): 10.55 10^12/L | Red Blood Cell (RBC) ([6]; 5 mg/kg): 10.26 10^12/L | Red Blood Cell (RBC) ([6]; 7.5 mg/kg): 10.85 10^12/L | Red Blood Cell (RBC) ([6]; 10 mg/kg): 10.18 10^12/L | Body weight (% initial) ([6]; 2.5 mg/kg): 94.1 ± 1.3 % initial | Brain weight ([6]; 2.5 mg/kg): 0.372 ± 0.006 g | Heart weight ([6]; 2.5 mg/kg): 0.078 ± 0.002 g | Kidney weight ([6]; 2.5 mg/kg): 0.194 ± 0.005 g | Liver weight ([6]; 2.5 mg/kg): 0.87 ± 0.02 g | Lung weight ([6]; 2.5 mg/kg): 0.121 ± 0.005 g | Spleen weight ([6]; 2.5 mg/kg): 0.075 ± 0.004 g | Body weight (% initial) ([6]; 5 mg/kg): 91.6 ± 2.4 % initial | Brain weight ([6]; 5 mg/kg): 0.367 ± 0.007 g | Heart weight ([6]; 5 mg/kg): 0.078 ± 0.002 g | Kidney weight ([6]; 5 mg/kg): 0.187 ± 0.006 g | Liver weight ([6]; 5 mg/kg): 0.77 ± 0.02 g | Lung weight ([6]; 5 mg/kg): 0.117 ± 0.003 g | Spleen weight ([6]; 5 mg/kg): 0.075 ± 0.004 g | Body weight (% initial) ([6]; 7.5 mg/kg): 91.6 ± 2.2 % initial | Brain weight ([6]; 7.5 mg/kg): 0.356 ± 0.007 g | Heart weight ([6]; 7.5 mg/kg): 0.092 ± 0.005 g | Kidney weight ([6]; 7.5 mg/kg): 0.193 ± 0.008 g | Liver weight ([6]; 7.5 mg/kg): 0.83 ± 0.03 g | Lung weight ([6]; 7.5 mg/kg): 0.119 ± 0.004 g | Spleen weight ([6]; 7.5 mg/kg): 0.061 ± 0.009 g
